# Measurements reported in ChEMBL document CHEMBL1671659, “In vitro and in vivo properties of dihydrophthalazine antifolates, a novel family of antibacterial drugs” (Antimicrob Agents Chemother, 2009).
# Activity calls are given as the source filed them. The rule behind the calls is not given here.
# Tests used:
# Mycobacterium avium [1] = test: Antibacterial activity against Mycobacterium avium; type: functional
# [2] = system: Staphylococcus epidermidis; test: Antibacterial activity against methicillin-sensitive dfrC, dfrA-positive and dfrD-negative Staphylococcus epidermidis; type: functional
# Staphylococcus aureus [3] = test: Antibacterial activity against methicillin-sensitive dfrB-positive abd dfrA, dfrG-negative Staphylococcus aureus; type: functional
# Mycobacterium avium [4] = test: Antibacterial activity against Mycobacterium avium assessed as inhibition of bacterial growth at <=4 ug/ml; type: functional; design: scale not given: the % may be the effect or the level left
# Streptococcus pneumoniae [5] = test: Antibacterial activity against Streptococcus pneumoniae
# Mus musculus [6] = test: Hepatotoxicity in NMRI mouse assessed as increase in mitosis at 400 mg/kg administered through oral gavage for 5 days; type: toxicity, organism-based; design: dose 400 mg/kg, route oral; details: in vivo, 120 h
# Haemophilus influenzae [7] = test: Antibacterial activity against Haemophilus influenzae; type: functional
# Staphylococcus aureus [8] = test: Antibacterial activity against vancomycin, trimethoprim-sensitive and methicillin-resistant Staphylococcus aureus ATCC 43300 harboring dfrB gene; type: functional
# Mus musculus [9] = test: Hepatotoxicity in NMRI mouse assessed as inflammatory infiltrates at 400 mg/kg administered through oral gavage for 10 days; type: toxicity, organism-based; design: dose 400 mg/kg, route oral; details: in vivo, 240 h
# Mus musculus [10] = test: Hepatotoxicity in NMRI mouse assessed as increase in liver weight at 400 mg/kg administered through oral gavage for 5 days; type: toxicity, organism-based; design: dose 400 mg/kg, route oral; details: in vivo, 120 h
# Mus musculus [11] = test: Hepatotoxicity in NMRI mouse assessed as increase in mitosis at 400 mg/kg administered through oral gavage for 10 days; type: toxicity, organism-based; design: dose 400 mg/kg, route oral; details: in vivo, 240 h
# Mus musculus [12] = test: Hepatotoxicity in NMRI mouse assessed as increase in liver weight at 400 mg/kg administered through oral gavage for 10 days; type: toxicity, organism-based; design: dose 400 mg/kg, route oral; details: in vivo, 240 h
# Enterococcus faecium [13] = test: Antibacterial activity against Enterococcus faecium in presence of 50 ug/ml thymidine; type: functional
# [14] = Oral bioavailability in NMRI mouse; type: ADME, organism-based; details: in vivo
# Mus musculus [15] = test: Hepatotoxicity in NMRI mouse assessed as inflammatory infiltrates at 400 mg/kg administered through oral gavage for 5 days; type: toxicity, organism-based; design: dose 400 mg/kg, route oral; details: in vivo, 120 h
# [16] = system: Staphylococcus epidermidis; test: Antibacterial activity against methicillin, vancomycin, trimethoprim-sensitive Staphylococcus epidermidis ATCC 14990 harboring dfrC gene; type: functional
# Staphylococcus aureus [17] = test: Antibacterial activity against methicillin-resistant dfrA within SCCmec-N1, dfrA and dfrG -negative Staphylococcus aureus harboring F98Y mutation in dfrB gene; type: functional
# [18] = Inhibition of trimethoprim-resistant Staphylococcus aureus Type S1 dihydrofolate reductase
# [19] = Tmax in NMRI mouse blood at 25 mg/kg administered through oral gavage measured after 7 hrs; type: ADME, organism-based; design: dose 25 mg/kg, route oral
# Enterococcus faecalis [20] = test: Antibacterial activity against Enterococcus faecalis in presence of 50 ug/ml thymidine; type: functional
# Staphylococcus aureus [21] = test: Antibacterial activity against trimethoprim-sensitive Staphylococcus aureus ATCC 29213 infected in NMRI mouse model of septicemia assessed as complete protection from infections at 3.1 mg/kg, iv; type: functional, organism-based; design: dose 3.1 mg/kg
# [22] = Cmax in NMRI mouse blood at 25 mg/kg administered through oral gavage measured after 7 hrs; type: ADME, organism-based; design: dose 25 mg/kg, route oral
# [23] = system: Staphylococcus epidermidis; test: Antibacterial activity against methicillin-sensitive dfrC-positive and dfrA, dfrD-negative Staphylococcus epidermidis; type: functional
# Streptococcus pneumoniae [24] = test: Antibacterial activity against Streptococcus pneumoniae in presence of 50 ug/ml thymidine; type: functional
# [25] = Genotoxicity in Salmonella enterica serovar Typhimurium assessed as increase in number of bacterial revertant colonies by Ames test; type: toxicity; details: salmonella enterica subsp. enterica serovar typhimurium
# Enterococcus faecalis [26] = test: Antibacterial activity against Enterococcus faecalis; type: functional
# Enterococcus faecium [27] = test: Antibacterial activity against Enterococcus faecium in presence of 250 ug/ml thymidine; type: functional
# Staphylococcus aureus [28] = test: Antibacterial activity against methicillin-resistant dfrB, dfrG-positive and dfrA-negative Staphylococcus aureus; type: functional
# Enterococcus faecium [29] = test: Antibacterial activity against vancomycin-sensitive dfrE, dfrF-negative and folA-positive Enterococcus faecium; type: functional
# Haemophilus influenzae [30] = test: Antibacterial activity against Haemophilus influenzae in presence of 50 ug/ml thymidine
# Mus musculus [31] = test: Hepatotoxicity in NMRI mouse assessed as single-cell necrosis at 400 mg/kg administered through oral gavage for 5 days; type: toxicity, organism-based; design: dose 400 mg/kg, route oral; details: in vivo, 120 h
# Staphylococcus aureus [32] = test: Antibacterial activity against vancomycin, trimethoprim, methicillin-resistant Staphylococcus aureus VRS1 harboring dfrA and dfrB genes; type: functional
# [33] = Inhibition of trimethoprim-sensitive Staphylococcus aureus DfrB type dihydrofolate reductase
# Enterococcus faecalis [34] = test: Antibacterial activity against vancomycin-sensitive dfrE, dfrF-positive and folA-negative Enterococcus faecalis; type: functional
# HeLa = test: Cytotoxicity against human HeLa cells; type: cell-based
# Haemophilus influenzae [35] = test: Antibacterial activity against Haemophilus influenzae in presence of 250 ug/ml thymidine; type: functional
# Streptococcus pneumoniae [36] = test: Antibacterial activity against Streptococcus pneumoniae in presence of 250 ug/ml thymidine; type: functional
# [37] = AUC (0 to t) in NMRI mouse blood at 25 mg/kg administered through oral gavage after 7 hrs; type: ADME, organism-based; design: time < 7 hr, dose 25 mg/kg, route oral
# [38] = system: Staphylococcus epidermidis; test: Antibacterial activity against methicillin-resistant dfrC, dfrA-positive and dfrA within SCCmec-N1, dfrD-negative Staphylococcus epidermidis; type: functional
# Mus musculus [39] = test: Toxicity in po dosed NMRI mouse; type: organism-based; details: in vivo
# Enterococcus faecium [40] = test: Antibacterial activity against Enterococcus faecium; type: functional
# Mus musculus [41] = test: Hepatotoxicity in NMRI mouse assessed as single-cell necrosis at 400 mg/kg administered through oral gavage for 10 days; type: toxicity, organism-based; design: dose 400 mg/kg, route oral; details: in vivo, 240 h
# Dihydrofolate reductase = Dihydrofolate reductase (Staphylococcus aureus, UniProt P0A017, F99Y); test: Inhibition of trimethoprim-resistant Staphylococcus aureus DfrB type dihydrofolate reductase F98Y mutant
# [42] = system: Staphylococcus epidermidis; test: Antibacterial activity against methicillin-sensitive dfrA, dfrD-negative Staphylococcus epidermidis harboring F98Y mutation in dfrC gene; type: functional
# Enterococcus faecalis [43] = test: Antibacterial activity against vancomycin-sensitive folA, dfrF-negative Enterococcus faecalis harboring A5T, K88N, F102Y mutation in dfrE gene; type: functional
# Staphylococcus aureus [44] = test: Antibacterial activity against trimethoprim-sensitive Staphylococcus aureus ATCC 29213 infected in NMRI mouse model of septicemia; type: functional
# Staphylococcus aureus [45] = test: Antibacterial activity against methicillin, vancomycin, trimethoprim-sensitive Staphylococcus aureus ATCC 29213 harboring dfrB gene; type: functional
# Staphylococcus aureus [46] = test: Antibacterial activity against trimethoprim-resistant Staphylococcus aureus BAS003908 infected in NMRI mouse model of septicemia; type: functional
# Staphylococcus aureus [47] = test: Antibacterial activity against methicillin-resistant dfrB, dfrA-positive and dfrA within SCCmec-N1, dfrG-negative Staphylococcus aureus; type: functional
# [48] = system: Staphylococcus epidermidis; test: Antibacterial activity against methicillin, vancomycin-sensitive and trimethoprim-resistant Staphylococcus epidermidis BAS000635 harboring dfrC and dfrA genes; type: functional
# Enterococcus faecalis [49] = test: Antibacterial activity against Enterococcus faecalis in presence of 250 ug/ml thymidine; type: functional
# Staphylococcus aureus [50] = test: Antibacterial activity against trimethoprim-resistant Staphylococcus aureus BAS003908; type: functional
# Staphylococcus aureus [51] = test: Antibacterial activity against trimethoprim-sensitive Staphylococcus aureus ATCC 29213 infected in NMRI mouse model of septicemia assessed as succumbed to infections at 1.6 mg/kg, iv; type: functional, organism-based; design: dose 1.6 mg/kg
# Enterococcus faecium [52] = test: Antibacterial activity against vancomycin-resistant dfrE, dfrF-negative and folA-positive Enterococcus faecium; type: functional
# Staphylococcus aureus [53] = test: Antibacterial activity against trimethoprim-sensitive Staphylococcus aureus ATCC 29213; type: functional
# [54] = system: Staphylococcus epidermidis; test: Antibacterial activity against methicillin-sensitive dfrA-positive and dfrD-negative Staphylococcus epidermidis harboring F98Y mutation in dfrC gene; type: functional
# Enterococcus faecium [55] = test: Antibacterial activity against vancomycin-resistant dfrE-negative and folA, dfrF-positive Enterococcus faecium; type: functional
# [56] = Staphylococcus aureus, read-out: MIC
smiles,measurement,setting,value
Nc1ccc(S(=O)(=O)c2ccc(N)cc2)cc1 [DAPSONE],MIC,Mycobacterium avium [1],< 16 µg/mL
COc1ncc(C2c3ccccc3C=NN2C(=O)/C=C/c2cc(Cc3cnc(N)nc3N)cc(OC)c2OC)cn1 (centres undefined),MIC,[2],0.5 µg/mL
same,MIC,Staphylococcus aureus [3],≤ 0.25 µg/mL
same,Activity,Mycobacterium avium [4],77%
same,MIC,Streptococcus pneumoniae [5],64 µg/mL
same,Activity,Mus musculus [6],< 10%
same,MIC,Haemophilus influenzae [7],> 128 µg/mL
same,MIC,Staphylococcus aureus [8],0.25 µg/mL
same,Activity,Mus musculus [9],< 10%
same,Activity,Mus musculus [10],< 10%
same,Activity,Mus musculus [11],< 10%
same,Activity,Mus musculus [12],< 10%
same,MIC,Enterococcus faecium [13],≥ 128 µg/mL
same,bioavailability,[14],25%
same,Activity,Mus musculus [15],< 10%
same,MIC,[16],0.125 µg/mL
same,MIC,Staphylococcus aureus [17],0.5 µg/mL
same,IC50,[18],121 nM
same,Tmax,[19],0.5 h
same,MIC,Enterococcus faecalis [20],≤ 0.25 µg/mL
same,Activity,Staphylococcus aureus [21],Active
same,Cmax,[22],3240 ng/mL
same,MIC,[23],≤ 0.25 µg/mL
same,MIC,Streptococcus pneumoniae [24],32 µg/mL
same,Activity,[25],Non-toxic
same,MIC,Enterococcus faecalis [26],≤ 0.25 µg/mL
same,MIC,Enterococcus faecium [27],> 128 µg/mL
same,MIC,Staphylococcus aureus [28],32 µg/mL
same,MIC,Enterococcus faecium [29],≤ 0.25 µg/mL
same,MIC,Haemophilus influenzae [30],64 µg/mL
same,Activity,Mus musculus [31],< 10%
same,MIC,Staphylococcus aureus [32],4 µg/mL
same,IC50,[33],5.2 nM
same,MIC,Enterococcus faecalis [34],> 128 µg/mL
same,IC50,HeLa,12000 nM
same,MIC,Haemophilus influenzae [35],32 µg/mL
same,MIC,Streptococcus pneumoniae [36],≥ 128 µg/mL
same,AUC(0-t) at 7 h,[37],10600 ng·h/mL
same,MIC,[38],0.5 µg/mL
same,Activity,Mus musculus [39],400 mg/kg
same,MIC,Enterococcus faecium [40],1 µg/mL
same,Activity,Mus musculus [41],< 10%
same,IC50,Dihydrofolate reductase,22.6 nM
same,MIC,[42],0.5 µg/mL
same,MIC,Enterococcus faecalis [43],0.5 µg/mL
same,ED50,Staphylococcus aureus [44],1.6 mg/kg
same,MIC,Staphylococcus aureus [45],0.5 µg/mL
same,ED50,Staphylococcus aureus [46],3.1 mg/kg
same,MIC,Staphylococcus aureus [47],1 µg/mL
same,MIC,Staphylococcus aureus [47]; [56],1 µg/mL
same,MIC,[48],4 µg/mL
same,MIC,Enterococcus faecalis [49],1 µg/mL
same,MIC,Staphylococcus aureus [50],0.5 µg/mL
same,Activity,Staphylococcus aureus [51],inactive
same,MIC,Enterococcus faecium [52],2 µg/mL
same,MIC,Staphylococcus aureus [53],< 0.25 µg/mL
COc1cc(Cc2cnc(N)nc2N)cc(/C=C/C(=O)N2N=Cc3ccccc3C2c2cnc(N(C)C)nc2)c1OC (centres undefined),MIC,[2],1 µg/mL
same,MIC,Staphylococcus aureus [3],1 µg/mL
same,Activity,Mycobacterium avium [4],77%
same,MIC,Streptococcus pneumoniae [5],≥ 128 µg/mL
same,MIC,Haemophilus influenzae [7],> 128 µg/mL
same,MIC,Staphylococcus aureus [8],1 µg/mL
same,Activity,Mus musculus [10],< 10%
same,MIC,Enterococcus faecium [13],≥ 128 µg/mL
same,bioavailability,[14],26%
same,MIC,[16],0.25 µg/mL
same,MIC,[54],1 µg/mL
same,MIC,Staphylococcus aureus [17],1 µg/mL
same,Tmax,[19],2 h
same,MIC,Enterococcus faecalis [20],≤ 0.25 µg/mL
same,Activity,Staphylococcus aureus [21],Active
same,MIC,Enterococcus faecium [55],> 128 µg/mL
same,Cmax,[22],5390 ng/mL
same,MIC,[23],< 0.25 µg/mL
same,MIC,Streptococcus pneumoniae [24],32 µg/mL
same,MIC,Enterococcus faecalis [26],0.5 µg/mL
same,MIC,Enterococcus faecium [27],≥ 128 µg/mL
same,MIC,Staphylococcus aureus [28],64 µg/mL
same,MIC,Enterococcus faecium [29],≤ 0.25 µg/mL
same,MIC,Haemophilus influenzae [30],≥ 128 µg/mL
same,MIC,Staphylococcus aureus [32],2 µg/mL
same,IC50,[33],11.3 nM
same,MIC,Enterococcus faecalis [34],> 128 µg/mL
same,IC50,HeLa,12000 nM
same,MIC,Haemophilus influenzae [35],32 µg/mL
same,MIC,Streptococcus pneumoniae [36],≥ 128 µg/mL
same,AUC(0-t) at 7 h,[37],23400 ng·h/mL
same,MIC,[38],0.5 µg/mL
same,Activity,Mus musculus [39],400 mg/kg
same,MIC,Enterococcus faecium [40],2 µg/mL
same,IC50,Dihydrofolate reductase,70.2 nM
same,MIC,[42],1 µg/mL
same,MIC,Enterococcus faecalis [43],0.5 µg/mL
same,ED50,Staphylococcus aureus [44],1.6 mg/kg
same,MIC,Staphylococcus aureus [45],0.5 µg/mL
same,ED50,Staphylococcus aureus [46],3.1 mg/kg
same,MIC,Staphylococcus aureus [47],1 µg/mL
same,MIC,Staphylococcus aureus [47]; [56],2 µg/mL
same,MIC,[48],2 µg/mL
same,MIC,Enterococcus faecalis [49],1 µg/mL
same,MIC,Staphylococcus aureus [50],1 µg/mL
same,Activity,Staphylococcus aureus [51],inactive
same,MIC,Enterococcus faecium [52],2 µg/mL
same,MIC,Staphylococcus aureus [53],1 µg/mL
